Results reported in patent publication US10975116B2, “Methods of treating and preventing gastrointestinal motility disorders using aminosterols” (Enterin, Inc., priority 2013, dated 2021).
Entries after “also recorded” stand apart in the source; their conditions may differ.

Assays:
gastrointestinal tract = assay: Aminosterol Induced GI Response after oral capsule in a human; format: in vivo
Procedure: Gelatin capsules were prepared for oral administration. Capsules were coated in shellac to prevent their release within the stomach. Furthermore, because squalamine and related aminosterols have antibiotic activity, enteric coating prevents the drug from altering the microbial populations of the stomach. […] Squalamine dilactate powder, 99% pure, or 1436 hydrochloride, 99% pure, was added manually into either Size 0 (for the 200 mg dose) or Size 1 (for the 100 mg dose) gelatin capsules. No excipient was added. The capsules were coated twice in 5% shellac (80% acetone/20% ethanol) and dried before use.
200 mg of squalamine (lactate salt, excipient free) in a coated gelatin capsule was administered orally to a human in the morning on an empty stomach, with water. Squalamine was synthesized as described in Zasloff et al 2011. Within 2 hours nausea was experienced, lasting about 30 minutes. At 2.5 hours, increased peristalsis (“rumbling gut”) was experienced, lasting several minutes. At about 3 hours, a clear watery discharge of about 200 ml was passed rectally. A second episode occurred at 3.2 hours. Following this episode, bowel sounds quieted. No nausea or discomfort was subsequently experienced. Appetite was near normal. Despite normal feeding, feces were not passed for 2.5 days over which time no discomfort was experienced. The first feces passed after this quiescent period was soft and relatively small considering the intake of food and the time interval. Usual bowel functions resumed by about 4 days after squalamine administration.
200 mg of 1436 (HCl salt, excipients free) in a gelatin capsule was administered orally to a human in the morning on an empty stomach, with water. […] At 2 hours, about 100 ml of clear watery diarrhea, recurring at 2.75 hours, 3 hours, 3.25 hours, and 4 hours, with progressively lesser volumes of liquid discharged. First bowel movement was passed at 3.5 days, of normal consistency. The subject experienced no abdominal discomfort, bloating, etc over this period. Usual bowel functions resumed by about 4.5 days after administration of Aminosterol 1436. […]
100 mg of squalamine was orally administered in a capsule as in the first example. […] A period of “bowel quiet” was induced, however, that lasted 2 days, after which normally formed feces were passed.

[1] = test system: Irritable Bowel Syndrome (IBS); assay: Oral squalamine in Irritable Bowel Syndrome, single subject; format: in vivo, human
Text: A person, in otherwise good health, was suffering from the “mixed” form of IBS since early childhood. The condition was characterized by a failure to feel “cleared” after the passage of a stool; occasional crampiness; abdominal bloating and a sense of “fullness.” The condition caused them to be “conscious of their bowels” throughout the day, and frequently interrupted their sleep. Attempts to relieve themself on the toilet would generally be ineffective, leaving them with the feeling of “still having to go.”
On day 1 the individual was administered a single 200 mg capsule of squalamine, orally, on an empty stomach with water. Within 2 hrs they experienced nausea, at 3 hrs they vomited, followed soon after by the passage of about 200 ml of clear discharge rectally. By 3.5 hrs the nausea had passed. They ate normally at lunch and dinner. […] Slept better than they had in many years. The first stool was passed on Day 4, was soft and passed easily, and then successively on Days 5, 6, 7, and 8. Beginning at Day 6, they began to experience the prior GI symptoms. By Day 8, their usual GI symptoms had returned.
A second dosing trial was begun on Day 15, with a 50 mg capsule administered. […] Bowel movement was passed on Day 17. A 25 mg capsule was administered on Day 19. […] It was assumed that 50 mg dosed every other day was an optimum regimen. The individual remained on a dosing schedule of 50 mg orally every other day.

Parkinson's disease = assay: Oral squalamine in Parkinson's disease with constipation, single subject; format: in vivo, human
Procedure: A person, in otherwise good health, presented with Parkinson's disease of about 5 yrs duration. They were severely constipated and suffered from frequent episodes of cramping. These GI symptoms were similar to that described in Parkinson's and could not be alleviated medically or through dietary adjustment. Their medications included 5 L-DOPA/DDC caps/day and 1-2 Requip before bedtime. Their neurological status at this time was as follows, as determined about 1 hour after an L-DOPA dosing, a time point when they appear to be repleted with dopamine: • Slow walking with shuffling . . . need to squat intermittently • Articulation poor . . . difficult to understand their speech . . . halting • Use of utensils while eating involved slow, awkward movements • Face seemed a bit mask like; unconsciously made chewing movements • Cognitive function (memory, wit) was less than observed 3 months prior • Balance was unsteady • Mood was depressed • Swallowing noted to be difficult at times • Chewing food was slow • Handwriting was small
Began oral dosing with 200 mg capsule of squalamine on Day 1. Capsule was taken in the AM before breakfast, along with L-DOPA. […] 200 mg cap on day 2 provoked a watery diarrhea at 2 hrs after dosing, but discharge subsided by day 3 dosing. On day 13, subsequent dosing was maintained at 200 mg every other day, with some minor degree of nausea. No watery discharge. At about Day 30 the subject was switched to 100 mg every other day, and remained on this regimen for about 9.5 months.

[2] = test system: embryonal rhabdomyosarcoma; assay: Oral squalamine in sarcoma with dose finding by GI response, single subject; format: in vivo, human
Procedure: A person was seen because of the recurrence of an embryonal rhabdomyosarcoma. They noticed a mass in their left groin. […] The mass was surgically excised. The patient was then treated with a cocktail of chemotherapeutic agents. Several months later the mass was seen to recur in the left groin. The mass was again excised. Several months later, a tumor was gain noted in the groin, with a large mass present in the left lung.
At 300 mg daily, a clear effect was noted, that being mild nausea, 2 hours after dosing, followed by a bowel movement later in the day.

NHE-3 transporter = settings: electrostatic mechanism, epithelial cell; cited from earlier work
[3] = single 100 mg oral capsule, empty stomach
[4] = single 200 mg oral capsule, morning, empty stomach, one human
[5] = single 200 mg capsule Day 1, empty stomach

## squalamine
Gastrointestinal tract; 200 mg oral capsule in the evening following a large meal, overnight and following morning
  gastrointestinal response: No gastrointestinal response
Gastrointestinal tract; following a single 200 mg oral dose
  duration of the Aminosterol-Induced GI Response: about 4 days
Gastrointestinal tract; following the larger squalamine dose (for example 200 mg)
  period of bowel quiet after the watery discharge (Phase III): 2 to 3 days
Gastrointestinal tract; [3]
  duration of bowel quiet: 2 days
  nausea and watery diarrhea: Neither nausea, nor watery diarrhea was experienced
Gastrointestinal tract; [4]
  duration of nausea: about 30 minutes
  first clear watery rectal discharge / diarrhea, time after dosing: about 3 hours
  further episodes of watery discharge, time after dosing: 3.2 h
  increased peristalsis, time after dosing: 2.5 h
  nausea, time of onset after dosing: ≤ 2 h
  usual bowel functions resumed, time after administration: about 4 days
  volume of first clear watery discharge: about 200 ml
Gastrointestinal tract; single 200 mg oral capsule, morning, empty stomach, normal behavior about 1 passage every 24 hours
  time without feces / to first bowel movement after dosing: 2.5 days
Gastrointestinal tract; single 200 mg oral dose, versus normal about 1 passage every 24 hours
  estimated reduction of small intestinal motility: 2.5 fold
[1]; 25 mg capsule on Day 19
  response to 25 mg capsule: By Day 21 the previous symptoms of IBS were returning
[1]; 50 mg capsule on Day 15
  response to 50 mg capsule: Neither nausea nor a discharge was experienced; also recorded: Sense of bowel quiet was experienced
[1]; 50 mg orally every other day, at 10 months
  IBS status on maintenance dosing: no longer experiences symptoms of IBS; also recorded: Bowel movements are of normal consistency; also recorded: Sleep is no longer interrupted by urgency to defecate
[1]; [5]
  nausea had passed, time after dosing: ≤ 3.5 h
  volume of clear discharge passed rectally: about 200 ml
  vomiting, time after dosing: 3 h
[1]; single 200 mg capsule Day 1, empty stomach, person with mixed IBS
  nausea, time of onset after dosing: ≤ 2 h
[1]; single 200 mg capsule on Day 1
  first stool passed: Day 4
  period of bowel quiet without cramping or urgency: Day 1 through Day 5
  return of usual GI symptoms: Day 8
Parkinson's disease; 200 mg cap on day 2
  watery diarrhea, time after dosing: 2 h
Parkinson's disease; 200 mg capsule Day 1, AM before breakfast, with L-DOPA
  GI response to first dose: No nausea experienced nor watery discharge; also recorded: Passed several moist stools
Parkinson's disease; 3 Weeks, 200 mg, from day 13 every other day
  Observations: Mood seems to have improved; also recorded: Some shaking even after L-DOPA; also recorded: Bowels improved considerably; also recorded: Walking more comfortably, but still uneven; also recorded: Subject feels breathing is easier; also recorded: Articulation much improved
Parkinson's disease; oral squalamine 200 mg regimen
  resolution of constipation: Constipation resolved within several weeks
[2]; 100 mg capsules for several days
  GI response: without any noticeable GI symptoms
[2]; 200 mg daily
  GI response: without any GI response
[2]; 300 mg daily
  GI response: mild nausea
  mild nausea, time after dosing: 2 h
[2]; 2 months post surgery, dosing continued
  tumor status: no evidence of pulmonary tumors nor evidence of recurrence of any soft tissue tumor in the groin
[2]; 3 weeks after initiation of dosing
  finding in surgically removed lung tumor: massive internal hemorrhage due to blood vessel damage
NHE-3 transporter
  effect on NHE-3 transporter: inhibits the NHE-3 transporter
